The record followed here is US20110015162A1, “15,16-Methylene-17-hydroxy-19-nor-21-carboxylic acid-steroid Y-lactone derivative, use thereof and medicinal products containing the derivative” (Bayer Schering Pharma Aktiengesellschaft, priority 2007, published 2011).

SMILES strings stand for the structures. Where two headings read alike, the source gives them in different places.

The target in assay [1] is T1, androgen receptor (Homo sapiens, UniProt P10275).
T1 sequence (P10275 1-920): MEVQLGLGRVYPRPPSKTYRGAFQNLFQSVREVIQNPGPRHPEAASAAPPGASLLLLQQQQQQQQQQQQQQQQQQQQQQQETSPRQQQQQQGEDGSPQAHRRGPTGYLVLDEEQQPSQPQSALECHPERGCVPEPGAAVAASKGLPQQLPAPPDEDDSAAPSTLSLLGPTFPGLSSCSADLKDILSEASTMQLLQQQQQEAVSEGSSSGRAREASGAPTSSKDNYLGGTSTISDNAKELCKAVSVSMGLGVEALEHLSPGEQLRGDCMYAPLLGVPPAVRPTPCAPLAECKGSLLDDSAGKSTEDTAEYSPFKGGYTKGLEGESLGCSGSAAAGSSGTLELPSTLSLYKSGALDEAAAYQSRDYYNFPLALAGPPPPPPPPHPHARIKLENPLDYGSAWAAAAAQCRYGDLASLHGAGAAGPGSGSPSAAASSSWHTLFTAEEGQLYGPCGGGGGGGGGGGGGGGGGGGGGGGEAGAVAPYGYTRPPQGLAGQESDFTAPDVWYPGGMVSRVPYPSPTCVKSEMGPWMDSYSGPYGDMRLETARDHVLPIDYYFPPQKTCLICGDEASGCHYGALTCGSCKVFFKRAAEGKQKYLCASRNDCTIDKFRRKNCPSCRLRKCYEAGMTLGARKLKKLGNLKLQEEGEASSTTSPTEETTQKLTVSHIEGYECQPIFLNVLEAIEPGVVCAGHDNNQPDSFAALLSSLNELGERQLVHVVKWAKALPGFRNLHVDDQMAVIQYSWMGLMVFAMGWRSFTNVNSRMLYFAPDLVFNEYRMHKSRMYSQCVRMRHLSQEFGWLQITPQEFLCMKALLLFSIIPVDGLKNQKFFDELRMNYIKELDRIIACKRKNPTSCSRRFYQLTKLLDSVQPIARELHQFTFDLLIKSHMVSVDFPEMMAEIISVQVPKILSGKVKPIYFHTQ
Put plainly: Androgen receptor binding test. Also noted: expressed in transfected cells. To be noted: reference substance 3H-testosterone.

The target in assay [2] is T1, androgen receptor. Kind of assay: Androgenic/antiandrogenic action by transactivation test (PC3 reporter cells). Also noted: expressed in transfected cells; host or cells: PC3 cells. Type of assay: cell-based. How it is done:
The test compounds were added eight hours later, and the cells were incubated with the compounds for 16 hours. The tests were carried out in triplicate. At the end of incubation the medium containing the effector was removed and replaced with lysis buffer. After luciferase assay substrate (Promega, #E1501) had been added, the 96-well plates were then put in a microplate luminometer (Pherastar, BMG Labtech), and the luminescence was measured. The IC50 values were evaluated using software for calculating dose-effect relations.
6. Determination of Androgenic/Antiandrogenic Action by Means of Transactivation Tests:
The androgenic/antiandrogenic action of the test substances was determined as for the transactivation tests described above.
The following modifications were made: In this case reporter cell lines were used (PC3 cells) that express the androgen receptor, and a reporter construct that contains luciferase under the control of a steroid hormone-responsive promoter.
For determination of the antiandrogenic efficacy, 0.05 nM R1881 was added to the cells, in order to achieve almost maximum stimulation of the reporter gene.

Assay [3] concerns the target T2, mineralocorticoid receptor (Homo sapiens, UniProt P08235).
T2 sequence (P08235 1-984): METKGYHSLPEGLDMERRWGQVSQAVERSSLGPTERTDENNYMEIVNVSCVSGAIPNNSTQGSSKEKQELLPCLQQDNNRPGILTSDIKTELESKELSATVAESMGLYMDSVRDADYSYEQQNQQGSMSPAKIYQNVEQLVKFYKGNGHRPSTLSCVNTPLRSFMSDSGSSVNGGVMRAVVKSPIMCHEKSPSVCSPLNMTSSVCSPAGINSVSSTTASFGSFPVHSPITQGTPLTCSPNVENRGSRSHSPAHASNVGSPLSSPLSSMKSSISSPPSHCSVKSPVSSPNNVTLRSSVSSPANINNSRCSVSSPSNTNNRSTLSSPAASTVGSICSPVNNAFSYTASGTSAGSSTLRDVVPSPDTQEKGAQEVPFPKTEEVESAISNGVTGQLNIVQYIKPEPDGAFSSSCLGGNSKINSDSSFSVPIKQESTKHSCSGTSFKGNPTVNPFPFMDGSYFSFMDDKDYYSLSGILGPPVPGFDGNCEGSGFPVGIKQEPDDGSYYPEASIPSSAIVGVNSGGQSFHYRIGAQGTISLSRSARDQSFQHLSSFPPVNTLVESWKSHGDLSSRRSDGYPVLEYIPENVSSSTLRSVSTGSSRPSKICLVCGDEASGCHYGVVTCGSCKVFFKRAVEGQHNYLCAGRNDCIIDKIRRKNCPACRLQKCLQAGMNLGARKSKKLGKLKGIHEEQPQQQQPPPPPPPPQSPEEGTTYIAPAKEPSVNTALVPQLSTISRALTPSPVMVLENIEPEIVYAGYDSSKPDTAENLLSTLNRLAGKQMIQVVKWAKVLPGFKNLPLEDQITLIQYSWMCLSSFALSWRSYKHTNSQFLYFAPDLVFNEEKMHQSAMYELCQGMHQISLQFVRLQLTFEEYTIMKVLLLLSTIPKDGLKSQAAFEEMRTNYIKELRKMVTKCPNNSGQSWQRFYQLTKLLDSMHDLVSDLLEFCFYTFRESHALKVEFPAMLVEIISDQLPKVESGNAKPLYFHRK
Kind of assay: Mineralocorticoid receptor binding test. To be noted: reference substance 3H-aldosterone, cytosol from MR-expressing insect cells (Hi5). Also on record: made in house; host or cells: Hi5 insect cells (cytosol). On the procedure: (§1) Using cytosol from progesterone receptor-expressing insect cells (Hi5), competitive binding to the progesterone receptor was determined from the ability to displace ^3H-progesterone as reference substance from the receptor.
2. Mineralocorticoid Receptor Binding Test:
The test was carried out as in 1, with the following modifications: cytosol from mineralocorticoid receptor-expressing insect cells (Hi5) was used, and the reference substance was ^3H-aldosterone.

The target in assay [4] is T1, androgen receptor. Put plainly: Androgen receptor binding test. Also noted: expressed in transfected cells. How it is done:
as §1
3. Androgen Receptor Binding Test: […]

The mark [5] stands for this setting: PC-3, read-out: Androgen receptor Agonism efficacy.
[6] abbreviates: PC-3, read-out: Androgen receptor Antagonism efficacy.
The mark [7] stands for this setting: reference substance 3H-testosterone, cytosol from AR-expressing insect cells (Hi5), read-out: Androgen receptor IC50.

Turning to `CC[C@]12CC[C@H]3[C@H]([C@@H]1[C@@H]1C[C@@H]1[C@@]21C=CC(=O)O1)[C@H](C1CC1)CC1=CC(=O)CC[C@@H]13` [Example 7A, 17β-Hydroxy-7α-cyclopropyl-18-methyl-15β,16β-methylene-19-nor-17α-pregna-4,20(Z)-dien-3-one-21-carboxylic acid γ-lactone], the “Androgen receptor Competition factor” value on androgen receptor [1] was 5.2. At androgen receptor [2], this compound showed an EC50 of 33 nM. The Emax was 62.6% at androgen receptor [2] (setting [5]) and 5% on androgen receptor [2] (setting [6]). In addition, the “Mineralocorticoid receptor (MR) Competition factor” value (“Mineralocorticoid receptor” below) in assay [3] is 4.7. This compound gave an IC50 on androgen receptor [4] of 170 nM.

Consider `CC[C@]12CC[C@H]3[C@@H]([C@H]4C[C@H]4C4=C(Cl)C(=O)CC[C@@H]43)[C@@H]1[C@@H]1C[C@@H]1[C@@]21C=CC(=O)O1` [Example 8, 6β,7β;15β,16β-Bismethylene-4-chloro-17β-hydroxy-18-methyl-19-nor-17α-pregna-4,20(Z)-dien-3-one-21-carboxylic acid γ-lactone], for which the “Androgen receptor Competition factor” value at androgen receptor [1] is recorded as 240.0. At androgen receptor [2], this compound displayed an EC50 of 250 nM. Besides, the results for the IC50 against androgen receptor [2] and on androgen receptor [4] (setting [7]) were 130 nM and 4300 nM, respectively. In addition, the Emax at androgen receptor [2] (setting [5]) turned out to be 32.9%; at androgen receptor [2] (setting [6]) it was 22.9%. Moreover, in assay [3], the “Mineralocorticoid receptor” value is recorded as 29.0.

Regarding `CC[C@]12CC[C@H]3[C@@H](C[C@@H](CO)C4=CC(=O)CC[C@@H]43)[C@@H]1[C@@H]1C[C@@H]1[C@@]21C=CC(=O)O1` [Example 10, 17β-Hydroxy-6β-hydroxymethylene-18-methyl-15β,16β-methylene-19-nor-17α-pregna-4,20(Z)-dien-3-one-21-carboxylic acid γ-lactone], on androgen receptor [1], the “Androgen receptor Competition factor” value is listed as 1000.0. It took 130 nM to reach a half-maximal effect at androgen receptor [2] (EC50). The IC50 was determined as 160 nM against androgen receptor [2] and 1000 nM on androgen receptor [4] (setting [7]). In addition, the Emax on androgen receptor [2] (setting [5]) turned out to be 17.9%; on androgen receptor [2] (setting [6]), 15.6%. The “Mineralocorticoid receptor” value in assay [3] is 2.7.

Consider `C[C@]12CC[C@H]3[C@@H](CCC4=CC(=O)CC[C@@H]43)[C@@H]1[C@H]1C[C@H]1[C@@]21C=CC(=O)O1` [Example 12, 17β-Hydroxy-15α,16α-methylene-19-nor-17α-pregna-4,20(Z)-dien-3-one-21-carboxylic acid γ-lactone], for which, at androgen receptor [1], the “Androgen receptor Competition factor” value was determined as 16.5. For the same compound, on androgen receptor [2], the EC50 is 130 nM. The IC50 stood at 86 nM on androgen receptor [2] and 200 nM at androgen receptor [4]. For the same compound, the results for the Emax at androgen receptor [2] (setting [5]) and at androgen receptor [2] (setting [6]) were 14.9% and 61.7%, respectively. The “Mineralocorticoid receptor” value in assay [3] amounted to 2.9.

On to `C[C@]12CC[C@H]3[C@@H](C=CC4=CC(=O)CC[C@@H]43)[C@@H]1[C@H]1C[C@H]1[C@@]21C=CC(=O)O1` [Example 13, 17β-Hydroxy-15α,16α-methylene-19-nor-17α-pregna-4,6,20(Z)-trien-3-one-21-carboxylic acid γ-lactone], for which the “Androgen receptor Competition factor” value at androgen receptor [1] is 163.2. Also, the EC50 on androgen receptor [2] is 120 nM. Besides, the half-maximal inhibitory concentration (IC50) on androgen receptor [2] stood at 100 nM; at androgen receptor [4] (setting [7]) it was 5100 nM. For the same compound, the Emax on androgen receptor [2] (setting [5]) was determined as 14.4%; on androgen receptor [2] (setting [6]) it was 47.4%. In addition, in assay [3], the “Mineralocorticoid receptor” value is reported as 1.6.

For the compound `C[C@@H]1CC2=CC(=O)CC[C@@H]2[C@H]2CC[C@@]3(C)[C@@H]([C@H]4C[C@H]4[C@@]34C=CC(=O)O4)[C@@H]21` [Example 14A, 17β-Hydroxy-7α-methyl-15α,16α-methylene-19-nor-17α-pregna-4,20(Z)-dien-3-one-21-carboxylic acid γ-lactone], the “Androgen receptor Competition factor” value on androgen receptor [1] amounted to 2.3. On androgen receptor [2], this compound registered an EC50 of 13 nM. Also, the values for the IC50 at androgen receptor [2] and at androgen receptor [4] were 1.5 nM and 74 nM, respectively. Besides, the Emax at androgen receptor [2] (setting [5]) was 41.8%; at androgen receptor [2] (setting [6]) it was 21%. In addition, in assay [3], the “Mineralocorticoid receptor” value was determined as 1.3.

Take `CC[C@@H]1CC2=CC(=O)CC[C@@H]2[C@H]2CC[C@@]3(C)[C@@H]([C@H]4C[C@H]4[C@@]34C=CC(=O)O4)[C@H]12` [Example 15A, 17β-Hydroxy-7α-ethyl-15α,16α-methylene-19-nor-17α-pregna-4,20(Z)-dien-3-one-21-carboxylic acid γ-lactone]: the “Androgen receptor Competition factor” value on androgen receptor [1] was found to be 2.2. Moreover, the EC50 on androgen receptor [2] was 11 nM. The Emax at androgen receptor [2] (setting [5]) is 49.4%; on androgen receptor [2] (setting [6]), 5%. In addition, the “Mineralocorticoid receptor” value in assay [3] worked out at 0.8. Further, the half-inhibitory concentration (IC50) at androgen receptor [4] was determined as 60 nM.

For `C=C[C@@H]1CC2=CC(=O)CC[C@@H]2[C@H]2CC[C@@]3(C)[C@@H]([C@H]4C[C@H]4[C@@]34C=CC(=O)O4)[C@@H]21` [Example 16A, 17β-Hydroxy-7α-vinyl-15α,16α-methylene-19-nor-17α-pregna-4;20(Z)-dien-3-one-21-carboxylic acid γ-lactone], the “Androgen receptor Competition factor” value at androgen receptor [1] worked out at 2.6. The compound further registered an EC50 at androgen receptor [2] of 12 nM. Also, the Emax was 62.6% at androgen receptor [2] (setting [5]) and 5% on androgen receptor [2] (setting [6]). For the same compound, the “Mineralocorticoid receptor” value in assay [3] stood at 2.0. Moreover, the IC50 on androgen receptor [4] is 39 nM.

Take `C[C@]12CC[C@H]3[C@H]([C@@H]1[C@H]1C[C@H]1[C@@]21C=CC(=O)O1)[C@H](C1CC1)CC1=CC(=O)CC[C@@H]13` [Example 17A, 17β-Hydroxy-7α-cyclopropyl-15α,16α-methylene-19-nor-17α-pregna-4,20(Z)-dien-3-one-21-carboxylic acid γ-lactone]: the “Androgen receptor Competition factor” value on androgen receptor [1] was 5.2. In addition, on androgen receptor [2], the EC50 came to 23 nM. For the same compound, the values for the IC50 against androgen receptor [2] and on androgen receptor [4] were 11 nM and 77 nM, respectively. Further, the Emax on androgen receptor [2] (setting [5]) was determined as 40.8%; at androgen receptor [2] (setting [6]) it was 33.7%. In addition, in assay [3], the “Mineralocorticoid receptor” value was 2.6.

A word on the EC50: it is the concentration that produces a half-maximal response. What is called IC50 is the concentration that gives 50% inhibition.
